Results from patent US7084152B2, “4-phenyl substituted tetrahydroisoquinolines therapeutic use thereof” (AMR Technology, Inc., priority 2000, dated 2006).
Counter-ions that a name gives are not always drawn.

System: not given
Settings: not given

Row | Structure (SMILES) | melting point [°C]
1 | CN1Cc2c(ccc3ccoc23)C(c2ccccc2)C1 (single isomer, unassigned) (as salt: maleate) | 165 to 168
2 | CN1Cc2c(ccc3ccoc23)C(c2cc(F)cc(F)c2)C1 (stereo not shown) (as salt: hydrochloride) | 233 to 236
3 | Cc1ccc(C2CN(C)Cc3c2ccc2ccoc32)cc1 (single isomer, unassigned) (as salt: maleate) | 190 to 191
4 | Cc1ccc(C2CN(C)Cc3c2ccc2ccoc32)cc1 (single isomer, unassigned) (as salt: hydrochloride) | 240 to 246
5 | CN1Cc2c(ccc3ccoc23)C(c2ccccc2)C1 (single isomer, unassigned) | 81 to 83
6 | CN1Cc2c(ccc3ccoc23)C(c2ccc(F)cc2)C1 (stereo not shown) (as salt: hydrochloride) | 242 to 257

System: dopamine transporter protein over the norepinephrine transporter protein
Settings: ratio of Ki values; cited from earlier work

Row | Structure (SMILES) | DAT/NET Ki ratio
7 | COC(=O)C(c1ccccc1)C1CCCCN1 (stereo not shown) [Methylphenidate, methylphenidate] | 0.1
